Data reported in the supplement of paper PMC11451515.

Test system: NOMO1
Assay: cell viability relative to DMSO control; higher = less cytotoxic
Settings: 48 h
Summary of the method: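 Viability, reported as a per-plate percentage of DMSO wells with cell-free wells as background, came from CellTiter-Glo One luminescence. Reading took place after 48 h at 37°C. Before that, NOMO1 or SEM (500 cells/well) or P12-Ichikawa (1000 cells/well) leukemia cells, adapted for at least four passages in each medium, were seeded in 1536-well plates (5 μl) and pin-dosed with library compounds in DMSO, 47 μM to 0.79 nM over 11 threefold points.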

[1] = HPLM + 10% dialyzed FBS, 0.000781 µM
[2] = HPLM + 10% dialyzed FBS, 0.00234 µM
[3] = HPLM + 10% dialyzed FBS, 0.00702 µM
[4] = HPLM + 10% dialyzed FBS, 0.0211 µM
[5] = HPLM + 10% dialyzed FBS, 0.0632 µM
[6] = HPLM + 10% dialyzed FBS, 0.19 µM
[7] = HPLM + 10% dialyzed FBS, 0.569 µM
[8] = HPLM + 10% dialyzed FBS, 1.71 µM
[9] = HPLM + 10% dialyzed FBS, 5.12 µM
[10] = HPLM + 10% dialyzed FBS, 15.4 µM
[11] = HPLM + 10% dialyzed FBS, 46.1 µM
[12] = RPMI 5 mM glucose + 10% FBS, 0.000781 µM
[13] = RPMI 5 mM glucose + 10% FBS, 0.00234 µM
[14] = RPMI 5 mM glucose + 10% FBS, 0.00702 µM
[15] = RPMI 5 mM glucose + 10% FBS, 0.0211 µM
[16] = RPMI 5 mM glucose + 10% FBS, 0.0632 µM
[17] = RPMI 5 mM glucose + 10% FBS, 0.19 µM
[18] = RPMI 5 mM glucose + 10% FBS, 0.569 µM
[19] = RPMI 5 mM glucose + 10% FBS, 1.71 µM
[20] = RPMI 5 mM glucose + 10% FBS, 5.12 µM
[21] = RPMI 5 mM glucose + 10% FBS, 15.4 µM
[22] = RPMI 5 mM glucose + 10% FBS, 46.1 µM
[23] = RPMI 5 mM glucose + 10% dialyzed FBS, 0.000781 µM
[24] = RPMI 5 mM glucose + 10% dialyzed FBS, 0.00234 µM
[25] = RPMI 5 mM glucose + 10% dialyzed FBS, 0.00702 µM
[26] = RPMI 5 mM glucose + 10% dialyzed FBS, 0.0211 µM
[27] = RPMI 5 mM glucose + 10% dialyzed FBS, 0.0632 µM
[28] = RPMI 5 mM glucose + 10% dialyzed FBS, 0.19 µM
[29] = RPMI 5 mM glucose + 10% dialyzed FBS, 0.569 µM
[30] = RPMI 5 mM glucose + 10% dialyzed FBS, 1.71 µM
[31] = RPMI 5 mM glucose + 10% dialyzed FBS, 5.12 µM
[32] = RPMI 5 mM glucose + 10% dialyzed FBS, 15.4 µM
[33] = RPMI 5 mM glucose + 10% dialyzed FBS, 46.1 µM

SMILES	cell viability [1] [%]	cell viability [2] [%]	cell viability [3] [%]	cell viability [4] [%]	cell viability [5] [%]	cell viability [6] [%]	cell viability [7] [%]	cell viability [8] [%]	cell viability [9] [%]	cell viability [10] [%]	cell viability [11] [%]	cell viability [12] [%]	cell viability [13] [%]	cell viability [14] [%]	cell viability [15] [%]	cell viability [16] [%]	cell viability [17] [%]	cell viability [18] [%]	cell viability [19] [%]	cell viability [20] [%]	cell viability [21] [%]	cell viability [22] [%]	cell viability [23] [%]	cell viability [24] [%]	cell viability [25] [%]	cell viability [26] [%]	cell viability [27] [%]	cell viability [28] [%]	cell viability [29] [%]	cell viability [30] [%]	cell viability [31] [%]	cell viability [32] [%]	cell viability [33] [%]
Cc1cnn(C)c1C(=O)Nc1cc(Nc2ccc3c(/C=C/c4ccccn4)n[nH]c3c2)ccc1F	119	125	124	141	129	113	143	120	102	70.4	12.9	–	–	–	–	–	–	–	–	–	–	–	–	–	–	–	–	–	–	–	–	–	–
Cc1nc2cnc3ccc(C#Cc4cccnc4)cc3c2n1-c1ccc(C(C)(C)C#N)cc1	72.6	84.9	82.3	83.2	50.2	59.6	38.7	44.8	43.3	36.3	8.48	65	78.6	69.6	81.1	61.8	62.7	32	47.1	44.1	38.6	7.85	66.4	81.6	91.9	84.9	56.7	60.7	30.4	48.8	40.1	48.4	9.18
Cc1coc2c1C(=O)C(=O)c1c-2ccc2c(C)cccc12	–	–	–	–	–	–	–	–	–	–	–	126	113	125	110	112	128	118	114	89.4	103	91.2	116	111	111	113	117	108	106	130	97.7	105	106
CNCCCC12CCC(c3ccccc31)c1ccccc12	106	102	107	110	111	99.9	101	90	95.2	63.5	18.3	104	94.9	92.2	97.2	95.2	84.4	85.8	98.3	79.2	80.9	60.6	94.5	87.9	88.2	106	91.6	91	85.1	94	76.2	74.4	38.4
CC1CNc2c(cccc2[S+](=O)([O-])N[C@@H](CCCNC(=N)N)C(=O)N2CC[C@@H](C)C[C@@H]2C(=O)O)C1 (stereo partly drawn)	117	101	106	106	104	94.9	106	114	101	112	123	98.3	87.9	99.4	96.9	103	98.2	100	93.3	96.6	100	95.1	86.3	87.7	101	107	97.6	94.3	101	110	99.6	111	102
COC\1=C(/OC)C(=O)\C(=C(C)/C1=O)CCCCCCCCCCO	97.4	132	118	148	114	134	153	154	148	122	61.6	–	–	–	–	–	–	–	–	–	–	–	–	–	–	–	–	–	–	–	–	–	–
CC[C@H](/C=C/[C@@H](C)[C@H]1CC[C@H]2[C@@H]3CC=C4C[C@@H](O)CC[C@]4(C)[C@H]3CC[C@]12C)C(C)C	104	112	110	98.9	104	102	97.3	96.7	80.6	73.7	58.2	89.3	94.3	101	105	92.9	90.7	88.8	92.8	81.1	81.3	78.7	98.2	89.4	91.1	84.5	96.1	89.5	86	95.1	94.5	68.3	69.6
COc1cc(F)c(F)c(Nc2ccc(I)cc2F)c1N[S+](=O)([O-])C1(C[C@H](O)CO)CC1	111	119	117	113	116	113	101	113	99.3	91.8	57	104	95.3	94.9	99.4	99.5	102	92.5	111	93.2	87.9	86.5	112	110	109	115	108	106	110	122	106	88.8	71.9
COc1ccc([C@@H]2CC(=O)c3c(O)cc(O[C@@H]4O[C@H](CO[C@@H]5O[C@@H](C)[C@H](O)[C@@H](O)[C@H]5O)[C@@H](O)[C@H](O)[C@H]4O)cc3O2)cc1O	107	117	122	128	116	123	125	118	115	108	103	120	106	107	114	121	118	117	123	120	119	118	98.8	106	115	113	110	96.6	115	125	115	101	101
O=C1NC(=O)/C(=C/c2ccc3nccc(-c4ccncc4)c3c2)S1	129	96.8	124	97.8	89.6	85.4	55.6	50.8	33.8	26	14.7	115	99.6	107	113	101	92.9	84.1	66.7	36.8	29.1	16	107	115	92	97.3	88	63.2	61	55.9	34.7	27.2	13.6
C[C@H]1C[C@@H]2[C@H](CC[C@@]3(C)[C@H]2CC[C@]3(OC(C)=O)C(C)=O)[C@@]\4(C)CCC(=O)\C=C14	95.2	112	116	112	119	110	125	123	120	81.3	118	103	103	103	101	99.5	107	128	117	101	95.9	103	86.7	98.7	109	88.5	101	98.8	104	98	103	88.7	112
C[C@]12CCC(=O)C=C1CC[C@@H]1[C@@H]2[C@@H](O)C[C@@]2(C)[C@H]1CC[C@]2(O)C(=O)CO	99	109	121	127	117	125	120	115	102	121	109	110	98.3	108	112	100	129	129	111	111	105	120	119	111	106	118	116	113	130	125	118	116	127
CCN1CCN(c2ccc(Nc3cc(N(C)C(=O)Nc4c(Cl)c(OC)cc(OC)c4Cl)ncn3)cc2)CC1	103	120	124	124	102	117	98.8	90.9	41.7	25.9	11.6	119	131	114	118	110	118	121	111	63.3	34.3	15.9	103	106	119	116	130	103	111	108	68.8	32.7	14.9
O=C(Nc1cccc(C(F)(F)F)c1)Nc1cc([S+](=O)([O-])NC2CC2)ccc1-c1ccsc1	–	–	–	–	–	–	–	–	–	–	–	111	99.2	102	105	104	97.7	105	109	105	96	16.5	–	–	–	–	–	–	–	–	–	–	–
CCC[S+]([O-])c1ccc2[nH]c(NC(=O)OC)nc2c1 (stereo not drawn)	102	81.8	100	106	98.5	109	95	79.5	93.5	72.2	18.7	88.2	96.6	94.2	103	101	89.9	101	82	93.8	71.2	15.5	94.5	91.3	94.7	87.4	84.9	88.8	81.7	76.4	81.2	58.4	19.4
N[S+]([O-])(=O)C1=CC=C(NC/2=C/C(=O)C3=CC=CC=C3C2=O)C=C1	100	126	111	132	119	121	134	111	93.2	100	85.4	121	123	131	151	131	147	129	132	126	123	102	–	–	–	–	–	–	–	–	–	–	–
C[C@H](NC(=O)c1sccc1OCc1ccc(Cl)cc1)c1ccccc1	80.8	88.2	80	77.6	91.5	87.5	69.1	68.5	86.9	80.1	69	85.6	83.6	72.4	82.2	94.3	77.9	83.1	78.7	77.7	81.1	77.5	91.3	83.6	77.9	90.7	82	76.2	66.8	82.6	90.8	77.7	87.8
